Measurements: patent publication US20050059626A1, “Methods of preventing and treating viral infections using immunomodulatory polynucleotide sequences” (priority 2000, published 2005)
Read-outs that look alike come from different tables or passages of the source.

Legend:
RSV A2 = experiment: RSV lung titer in cotton rats after non-local (IP or SC) administration; type: in vivo, cotton rat (Sigmoden hispidis); settings: for RSV titer (log10/g lung) Mean / RSV titer (log10/g lung) in cotton rat no. 1 / RSV titer (log10/g lung) in cotton rat no. 2 / RSV titer (log10/g lung) in cotton rat no. 3 / RSV titer (log10/g lung) in cotton rat no. 4 / RSV titer (log10/g lung) in CR no. 1 / RSV titer (log10/g lung) in CR no. 2 / RSV titer (log10/g lung) in CR no. 3 / RSV titer (log10/g lung) in CR no. 4: Non-ISS = SEQ ID NO:10
Method: Cotton rats, 50-100 g and 4-12 weeks old (Sigmoden hispidis) of either sex were used in these studies. All of the animals were descendants of two pair of cotton rats obtained in 1984 from the Small Animal Section of the Veterinary Research Branch, Division of Research Services, National Institutes of Health.
RSV strain A2 was purchased from the ATCC (ATCC VR26). Working stocks of this virus were prepared as described in detail by Wyde et al. (1995) Pediatr. Res. 38:543-550. ISS sequence tested for RSV experiments was 5′-[…]-3′ (SEQ ID NO:1) (phosphorothioate). Control, non-ISS sequences used were 5′-[…]-3′ (SEQ ID NO:9) (phosphorothioate) and 5′-[…]-3′ (SEQ ID NO:10) (phosphorothioate), as well as PBS.
RSV levels in virus pools and lung lavage fluids (L.F.) were determined using sterile 96-well, flat bottom tissue culture plates (Falcon 3072), serial 3-fold dilutions and 2% FCS-MEM as described in detail previously (Wyde et al., 1995). […] The amount of virus in virus pools was expressed as a median tissue culture infectious doses (TCID50/ml, log10). Titers of virus in L.F. were expressed as TCID50/g lung tissue (log10). The minimum detectable virus concentration in these assays was 1.3 log10 TCID50/ml (virus pools) or 1.6 log10 TCID50/g lung.
Twenty cotton rats were divided into 5 groups of 4 animals. Administered to these animals, either intraperitoneally (IP) or subcutaneously (SC), was PBS, immunostimulatory sequence (ISS) 5′-[…]-3′ (SEQ ID NO:1) or non-ISS sequence 5′-[…]-3′ (SEQ ID NO:10), each sequence at 150 μg/injection. On Day 0 each of these animals was […] IN with 100 TCID50 of RSV A2. Four days later each cotton rat was sacrificed. The lungs of each animal were removed, lavaged and assessed for RSV.

[1] = test system: influenza A/Mississippi (H3N2) virus; type: in vivo, mice; settings: for Pulmonary virus titer (log10/lung) Mean / Pulmonary virus titer (log10/lung) in mouse no. 1 / Pulmonary virus titer (log10/lung) in mouse no. 2 / Pulmonary virus titer (log10/lung) in mouse no. 3 / Pulmonary virus titer (log10/lung) in mouse no. 4 / Pulmonary virus titer (log10/lung) in mouse no. 5: non-ISS = SEQ ID NO:10
HSV-2 strain MS = experiment: Recurrent genital HSV-2 disease in guinea pigs; type: in vivo, Swiss Hartley guinea pigs
HSV-1 [2] = experiment: Viral titer from Vero cells pre-treated with oligonucleotide, HSV-1; type: cell-based, African Green monkey (Vero cells); settings: for Viral titer, percent of control titer: cells infected with HSV-1
Method: Vero cells, a cell line derived from African Green monkey kidney, were pre-treated with varying concentrations of ISS or non-ISS oligonucleotides for varying times prior to the addition of HSV-1 or HSV-2. Oligonucleotides were used at 1 μg/ml or 10 μg/ml and the cells were incubated with the oligonucleotides for 30 seconds, 10 minutes or 24 hours. Viral titers were calculated as a percent of control titer generated by cells not treated with the oligonucleotides. The data are expressed as percent of control titer.

HSV-1 [3] = experiment: Viral titer after pre-treating HSV-1 virus with oligonucleotide, Vero cells; type: cell-based, African Green monkey (Vero cells)
Method: (§1) HSV-1 or HSV-2 virus was pre-treated with varying concentrations of ISS or non-ISS oligonucleotides for 10 minutes prior to adding the mixture to plated Vero cells. Oligonucleotides were used at 1 μg/ml or 10 μg/ml. Viral titers were calculated as a percent of control titer generated by cells not treated with the oligonucleotides. The data are expressed as percent of control titer.

HSV-2 = experiment: Viral titer after pre-treating HSV-2 virus with oligonucleotide, Vero cells; type: cell-based, African Green monkey (Vero cells)
Method: as §1

[4] = 150 μg IP Day −1, RSV Day 0, lungs Day 4
[5] = 150 μg IP Day −3, RSV Day 0, lungs Day 4
[6] = 150 μg SC Day −1, RSV Day 0, lungs Day 4
[7] = 150 μg SC Day −3, RSV Day 0, lungs Day 4
[8] = 50 μg IP Day −1, virus Day 0, lungs Day 4
[9] = 50 μg IP Day −3, virus Day 0, lungs Day 4

5′-TGACTGTGAACGTTCGAGATGA-3′ [SEQ ID NO: 1]
RSV titer (log10/g lung) Mean (RSV A2; [4]): 3.6 log10/g lung | RSV titer (log10/g lung) in cotton rat no. 1 (RSV A2; [4]): 3.8 log10/g lung | RSV titer (log10/g lung) in cotton rat no. 2 (RSV A2; [4]): 3.3 log10/g lung | RSV titer (log10/g lung) in cotton rat no. 3 (RSV A2; [4]): 3.3 log10/g lung | RSV titer (log10/g lung) in cotton rat no. 4 (RSV A2; [4]): 3.8 log10/g lung | RSV titer (log10/g lung) Mean (RSV A2; [5]): 3.7 log10/g lung | RSV titer (log10/g lung) in cotton rat no. 1 (RSV A2; [5]): 3.3 log10/g lung | RSV titer (log10/g lung) in cotton rat no. 2 (RSV A2; [5]): 3.8 log10/g lung | RSV titer (log10/g lung) in cotton rat no. 3 (RSV A2; [5]): 3.8 log10/g lung | RSV titer (log10/g lung) in cotton rat no. 4 (RSV A2; [5]): 3.8 log10/g lung | RSV titer (log10/g lung) Mean (RSV A2; [6]): 4.0 log10/g lung | RSV titer (log10/g lung) in CR no. 1 (RSV A2; [6]): 4 log10/g lung | RSV titer (log10/g lung) in CR no. 2 (RSV A2; [6]): 4.5 log10/g lung | RSV titer (log10/g lung) in CR no. 3 (RSV A2; [6]): 3.5 log10/g lung | RSV titer (log10/g lung) in CR no. 4 (RSV A2; [6]): 4 log10/g lung | RSV titer (log10/g lung) Mean (RSV A2; [7]): 4.1 log10/g lung | RSV titer (log10/g lung) in CR no. 1 (RSV A2; [7]): 4 log10/g lung | RSV titer (log10/g lung) in CR no. 2 (RSV A2; [7]): 4.5 log10/g lung | RSV titer (log10/g lung) in CR no. 3 (RSV A2; [7]): 4 log10/g lung | RSV titer (log10/g lung) in CR no. 4 (RSV A2; [7]): 4 log10/g lung | Reduction in RSV viral titers compared to PBS (RSV A2; IP and SC administration of 150 μg): failed to cause a statistically significant reduction in viral titers | Pulmonary virus titer (log10/lung) Mean [1, 8]: 6.8 log10/lung | Pulmonary virus titer (log10/lung) in mouse no. 1 [1, 8]: 6.3 log10/lung | Pulmonary virus titer (log10/lung) in mouse no. 2 [1, 8]: 6.8 log10/lung | Pulmonary virus titer (log10/lung) in mouse no. 3 [1, 8]: 7.3 log10/lung | Pulmonary virus titer (log10/lung) in mouse no. 4 [1, 8]: 6.8 log10/lung | Pulmonary virus titer (log10/lung) in mouse no. 5 [1, 8]: 6.8 log10/lung | Pulmonary virus titer (log10/lung) Mean [1, 9]: 6.9 log10/lung | Pulmonary virus titer (log10/lung) in mouse no. 1 [1, 9]: 7.3 log10/lung | Pulmonary virus titer (log10/lung) in mouse no. 2 [1, 9]: 5.8 log10/lung | Pulmonary virus titer (log10/lung) in mouse no. 3 [1, 9]: 7.3 log10/lung | Pulmonary virus titer (log10/lung) in mouse no. 4 [1, 9]: 6.8 log10/lung | Pulmonary virus titer (log10/lung) in mouse no. 5 [1, 9]: 7.3 log10/lung | Reduction in influenza virus titer compared to PBS ([1]; IP, 50 μg/mouse before viral infection): fails to cause a satisfactory significant reduction in virus titer | Frequency of recurrences (recurrent lesions) (HSV-2 strain MS; 200 μg at 21 days PI (one group also days 42 and 63), ANOVA p=0.012): significant reduction in the frequency of recurrences | Effect on frequency of viral shedding (HSV-2 strain MS; single topical treatment 1 mg at day 21): unaffected | Magnitude of viral shedding (HSV-2 strain MS; single topical treatment 1 mg at day 21, vs control groups, p<0.001): significantly reduced | Cumulative mean recurrent lesion days (HSV-2 strain MS; single topical treatment 1 mg at day 21, vs non-ISS control or untreated): significantly decreased the cumulative mean recurrent lesion days | Effect on viral titers from infected cells (HSV-1 [2]; cells incubated with ISS prior to HSV infection in vitro (HSV-1 and HSV-2, Table 12)): no effect on the viral titers | Viral titer, percent of control titer (HSV-1 [2]; cells pre-treated 1 μg/ml, 30 sec): 98% of control titer | Viral titer, percent of control titer (HSV-1 [2]; cells pre-treated 1 μg/ml, 10 min): 96% of control titer | Viral titer, percent of control titer (HSV-1 [2]; cells pre-treated 1 μg/ml, 24 hr): 89% of control titer | Viral titer, percent of control titer (HSV-1 [2]; cells pre-treated 10 μg/ml, 30 sec): 100% of control titer | Viral titer, percent of control titer (HSV-1 [2]; cells pre-treated 10 μg/ml, 10 min): 102% of control titer | Viral titer, percent of control titer (HSV-1 [2]; cells pre-treated 10 μg/ml, 24 hr): 82% of control titer | Effect on viral titers from infected cells (HSV-1 [3]; HSV virus incubated with ISS prior to infecting cells in vitro (HSV-1 and HSV-2, Table 13)): no effect on the viral titers | Viral titer, percent of control titer (HSV-1 [3]; HSV-1 virus pre-treated 10 minutes with 1 μg/ml): 101% of control titer | Viral titer, percent of control titer (HSV-1 [3]; HSV-1 virus pre-treated 10 minutes with 10 μg/ml): 109% of control titer | Viral titer, percent of control titer (HSV-2; HSV-2 virus pre-treated 10 minutes with 1 μg/ml): 96% of control titer | Viral titer, percent of control titer (HSV-2; HSV-2 virus pre-treated 10 minutes with 10 μg/ml): 102% of control titer
